Experimental data reported in patent US12077503B2, “Substituted cyclic amides and their use as herbicides” (FMC CORPORATION, priority 2015, dated 2024).

Key:
Type in all cases: in vivo
[1] = system: giant foxtail (Setaria faberi); assay: Test G Pre-Emergence Protocol; conditions: Setaria faberi, pre-emergence, 312 h, evaluated after 13 days; for pest or weed control at 15.625 g/ha: 15.625 g ai/ha; for pest or weed control at 15.625 g/ha / pest or weed control at 250 g/ha: read-out: Foxtail, Giant damage rating (100=total damage to plant; 0=no damage to plant); for pest or weed control at 62.5 g/ha: 62.5 g ai/ha, 100=total damage to plant, 0=no damage to plant, read-out: plant damage rating, Foxtail, Giant; for pest or weed control at 250 g/ha: 250 g ai/ha
Method in brief: (§1)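 Test compound in 0.5% Tween 20 acetone/water (50:50) was applied at three rates (15.625, 62.5, 250 g/ha) to soil sown one day earlier. After 13 days plants were scored for injury, where 0 means unaffected and 100 means completely damaged.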

[2] = system: velvetleaf (Abutilon theophrasti); assay: Test G Pre-Emergence Protocol; conditions: Abutilon theophrasti, pre-emergence, 312 h, evaluated after 13 days; for pest or weed control at 15.625 g/ha: 15.625 g ai/ha; for pest or weed control at 15.625 g/ha / pest or weed control at 250 g/ha: read-out: Velvetleaf damage rating (100=total damage to plant; 0=no damage to plant); for pest or weed control at 62.5 g/ha: 62.5 g ai/ha, 100=total damage to plant, 0=no damage to plant, read-out: plant damage rating, Velvetleaf; for pest or weed control at 250 g/ha: 250 g ai/ha
Method in brief: as §1

[3] = system: corn (Zea mays); assay: Test G Pre-Emergence Protocol; conditions: Zea mays, pre-emergence, 312 h, evaluated after 13 days; for plant injury at 15.625 g/ha: 15.625 g ai/ha; for plant injury at 15.625 g/ha / plant injury at 250 g/ha: read-out: Corn damage rating (100=total damage to plant; 0=no damage to plant); for plant injury at 62.5 g/ha: 62.5 g ai/ha, 100=total damage to plant, 0=no damage to plant, read-out: plant damage rating, Corn; for plant injury at 250 g/ha: 250 g ai/ha
Method in brief: as §1

[4] = system: redroot pigweed (Amaranthus retroflexus); assay: Test G Pre-Emergence Protocol; conditions: Amaranthus retroflexus, pre-emergence, 312 h, evaluated after 13 days; for pest or weed control at 15.625 g/ha: 15.625 g ai/ha; for pest or weed control at 15.625 g/ha / pest or weed control at 250 g/ha: read-out: Pigweed, Redroot damage rating (100=total damage to plant; 0=no damage to plant); for pest or weed control at 62.5 g/ha: 62.5 g ai/ha, 100=total damage to plant, 0=no damage to plant, read-out: plant damage rating, Pigweed, Redroot; for pest or weed control at 250 g/ha: 250 g ai/ha
Method in brief: as §1

[5] = system: ivy-leaved morning glory (Ipomoea hederacea); assay: Test G Pre-Emergence Protocol; conditions: Ipomoea, pre-emergence, 312 h, evaluated after 13 days; for pest or weed control at 15.625 g/ha: 15.625 g ai/ha, read-out: Morning-glory, Ivy-leaved damage rating (100=total damage to plant; 0=no damage to plant); for pest or weed control at 62.5 g/ha: 62.5 g ai/ha, 100=total damage to plant, 0=no damage to plant, read-out: plant damage rating, Morningglory, Ivy-leaved; for pest or weed control at 250 g/ha: 250 g ai/ha, read-out: Morningglory, Ivy-leaved damage rating (100=total damage to plant; 0=no damage to plant)
Method in brief: as §1

[6] = system: barnyardgrass (Echinochloa crus-galli); assay: Test G Pre-Emergence Protocol; conditions: Echinochloa crus-galli, pre-emergence, 312 h, evaluated after 13 days; for pest or weed control at 15.625 g/ha: 15.625 g ai/ha, read-out: Barnyard grass damage rating (100=total damage to plant; 0=no damage to plant); for pest or weed control at 62.5 g/ha: 62.5 g ai/ha, 100=total damage to plant, 0=no damage to plant, read-out: plant damage rating, Barnyardgrass; for pest or weed control at 250 g/ha: 250 g ai/ha, read-out: Barnyardgrass damage rating (100=total damage to plant; 0=no damage to plant)
Method in brief: as §1

[7] = system: giant foxtail (Setaria faberi); assay: Test G Post-Emergence Protocol; conditions: Setaria faberi, post-emergence, 312 h; for pest or weed control at 15.625 g/ha: 15.625 g ai/ha, evaluated after 13 days (100=total damage to plant; 0=no damage to plant), read-out: Foxtail, Giant damage rating; for pest or weed control at 62.5 g/ha: 62.5 g ai/ha, read-out: Foxtail, Giant damage rating (100=total damage to plant; 0=no damage to plant); for pest or weed control at 62.5 g/ha / pest or weed control at 250 g/ha: evaluated after 13 days; for pest or weed control at 250 g/ha: 250 g ai/ha, read-out: damage to plant, Foxtail, Giant (100=total damage to plant; 0=no damage to plant)
Method in brief: (§2)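 Damage was rated 13 days after treatment from 0 (none) to 100 (plant killed). Compound was applied as a spray at 15.625, 62.5 or 250 g/ha in 50:50 acetone/water containing 0.5% Tween 20, onto 8-day-old potted plants kept in a glasshouse (24/16 °C, 14 h light, 65% humidity).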

[8] = system: velvetleaf (Abutilon theophrasti); assay: Test G Post-Emergence Protocol; conditions: Abutilon theophrasti, post-emergence, 312 h; for pest or weed control at 15.625 g/ha: 15.625 g ai/ha, evaluated after 13 days (100=total damage to plant; 0=no damage to plant), read-out: Velvetleaf damage rating; for pest or weed control at 62.5 g/ha: 62.5 g ai/ha, read-out: Velvetleaf damage rating (100=total damage to plant; 0=no damage to plant); for pest or weed control at 62.5 g/ha / pest or weed control at 250 g/ha: evaluated after 13 days; for pest or weed control at 250 g/ha: 250 g ai/ha, read-out: damage to plant, Velvetleaf (100=total damage to plant; 0=no damage to plant)
Method in brief: as §2

[9] = system: corn (Zea mays); assay: Test G Post-Emergence Protocol; conditions: Zea mays, post-emergence, 312 h; for plant injury at 15.625 g/ha: 15.625 g ai/ha, evaluated after 13 days (100=total damage to plant; 0=no damage to plant), read-out: Corn damage rating; for plant injury at 62.5 g/ha: 62.5 g ai/ha, read-out: Corn damage rating (100=total damage to plant; 0=no damage to plant); for plant injury at 62.5 g/ha / plant injury at 250 g/ha: evaluated after 13 days; for plant injury at 250 g/ha: 250 g ai/ha, read-out: damage to plant, Corn (100=total damage to plant; 0=no damage to plant)
Method in brief: as §2

[10] = system: redroot pigweed (Amaranthus retroflexus); assay: Test G Post-Emergence Protocol; conditions: Amaranthus retroflexus, post-emergence, 312 h; for pest or weed control at 15.625 g/ha: 15.625 g ai/ha, evaluated after 13 days (100=total damage to plant; 0=no damage to plant), read-out: Pigweed, Redroot damage rating; for pest or weed control at 62.5 g/ha: 62.5 g ai/ha, read-out: Pigweed, Redroot damage rating (100=total damage to plant; 0=no damage to plant); for pest or weed control at 62.5 g/ha / pest or weed control at 250 g/ha: evaluated after 13 days; for pest or weed control at 250 g/ha: 250 g ai/ha, read-out: damage to plant, Pigweed, Redroot (100=total damage to plant; 0=no damage to plant)
Method in brief: as §2

[11] = system: ivy-leaved morning glory (Ipomoea hederacea); assay: Test G Post-Emergence Protocol; conditions: Ipomoea, post-emergence, 312 h; for pest or weed control at 15.625 g/ha: 15.625 g ai/ha, evaluated after 13 days (100=total damage to plant; 0=no damage to plant), read-out: Morningglory, Ivy-leaved damage rating; for pest or weed control at 62.5 g/ha: 62.5 g ai/ha, read-out: Morningglory, Ivy-leaved damage rating (100=total damage to plant; 0=no damage to plant); for pest or weed control at 62.5 g/ha / pest or weed control at 250 g/ha: evaluated after 13 days; for pest or weed control at 250 g/ha: 250 g ai/ha, read-out: damage to plant, Morningglory, Ivy-leaved (100=total damage to plant; 0=no damage to plant)
Method in brief: as §2

[12] = system: barnyardgrass (Echinochloa crus-galli); assay: Test G Post-Emergence Protocol; conditions: Echinochloa crus-galli, post-emergence, 312 h; for pest or weed control at 15.625 g/ha: 15.625 g ai/ha, evaluated after 13 days (100=total damage to plant; 0=no damage to plant), read-out: Barnyardgrass damage rating; for pest or weed control at 62.5 g/ha: 62.5 g ai/ha, read-out: Barnyardgrass damage rating (100=total damage to plant; 0=no damage to plant); for pest or weed control at 62.5 g/ha / pest or weed control at 250 g/ha: evaluated after 13 days; for pest or weed control at 250 g/ha: 250 g ai/ha, read-out: damage to plant, Barnyardgrass (100=total damage to plant; 0=no damage to plant)
Method in brief: as §2

Row | SMILES | pest or weed control at 15.625 g/ha [1] [%] | pest or weed control at 62.5 g/ha [1] [%] | pest or weed control at 250 g/ha [1] [%] | pest or weed control at 15.625 g/ha [2] [%] | pest or weed control at 62.5 g/ha [2] [%] | pest or weed control at 250 g/ha [2] [%] | plant injury at 15.625 g/ha [3] [%] | plant injury at 62.5 g/ha [3] [%] | plant injury at 250 g/ha [3] [%] | pest or weed control at 15.625 g/ha [4] [%] | pest or weed control at 62.5 g/ha [4] [%] | pest or weed control at 250 g/ha [4] [%] | pest or weed control at 15.625 g/ha [5] [%] | pest or weed control at 62.5 g/ha [5] [%] | pest or weed control at 250 g/ha [5] [%] | pest or weed control at 15.625 g/ha [6] [%] | pest or weed control at 62.5 g/ha [6] [%] | pest or weed control at 250 g/ha [6] [%] | pest or weed control at 15.625 g/ha [7] [%] | pest or weed control at 62.5 g/ha [7] [%] | other results
1 | COc1cc(NC(=O)[C@@H]2C(=O)N(C)C[C@H]2c2ccc(C(F)(F)F)cc2)ccn1 (racemic) [Compound 1589] | 0 | 0 | 0 | 0 | 0 | 0 | 0 | 0 | 0 | 0 | 0 | 0 | 0 | 0 | 0 | 0 | 0 | 0 | 0 | 0 | pest or weed control at 250 g/ha [7]: 0%; pest or weed control at 15.625 g/ha [8]: 0%; pest or weed control at 62.5 g/ha [8]: 0%; pest or weed control at 250 g/ha [8]: 0%; plant injury at 15.625 g/ha [9]: 0%; plant injury at 62.5 g/ha [9]: 0%; plant injury at 250 g/ha [9]: 0%; pest or weed control at 15.625 g/ha [10]: 0%; pest or weed control at 62.5 g/ha [10]: 0%; pest or weed control at 250 g/ha [10]: 0%; pest or weed control at 15.625 g/ha [11]: 0%; pest or weed control at 62.5 g/ha [11]: 0%; pest or weed control at 250 g/ha [11]: 0%; pest or weed control at 15.625 g/ha [12]: 0%; pest or weed control at 62.5 g/ha [12]: 0%; pest or weed control at 250 g/ha [12]: 0%
2 | Cc1ccc(NC(=O)[C@@H]2C(=O)N(C)C[C@H]2c2ccc(C(F)(F)F)cc2)c(F)c1 (racemic) [Compound 1591] | 0 | 70 | 80 | 0 | 0 | 10 | 0 | 10 | 0 | 0 | 0 | 0 | 0 | 0 | 0 | 0 | 50 | 70 | 0 | 70 | pest or weed control at 250 g/ha [7]: 80%; pest or weed control at 15.625 g/ha [8]: 0%; pest or weed control at 62.5 g/ha [8]: 0%; pest or weed control at 250 g/ha [8]: 10%; plant injury at 15.625 g/ha [9]: 0%; plant injury at 62.5 g/ha [9]: 0%; plant injury at 250 g/ha [9]: 10%; pest or weed control at 15.625 g/ha [10]: 0%; pest or weed control at 62.5 g/ha [10]: 10%; pest or weed control at 250 g/ha [10]: 10%; pest or weed control at 15.625 g/ha [11]: 0%; pest or weed control at 62.5 g/ha [11]: 10%; pest or weed control at 250 g/ha [11]: 10%; pest or weed control at 15.625 g/ha [12]: 0%; pest or weed control at 62.5 g/ha [12]: 30%; pest or weed control at 250 g/ha [12]: 50%
3 | CN1C[C@@H](c2ccc(C(F)(F)F)cc2)[C@H](C(=O)Nc2ccccn2)C1=O (racemic) [Compound 1596] | 0 | 40 | 80 | 0 | 0 | 20 | 0 | 0 | 0 | 0 | 20 | 60 | 0 | 10 | 100 | 0 | 0 | 70 | 0 | 60 | pest or weed control at 250 g/ha [7]: 80%; pest or weed control at 15.625 g/ha [8]: 0%; pest or weed control at 62.5 g/ha [8]: 0%; pest or weed control at 250 g/ha [8]: 10%; plant injury at 15.625 g/ha [9]: 0%; plant injury at 62.5 g/ha [9]: 0%; plant injury at 250 g/ha [9]: 10%; pest or weed control at 15.625 g/ha [10]: 0%; pest or weed control at 62.5 g/ha [10]: 10%; pest or weed control at 250 g/ha [10]: 40%; pest or weed control at 15.625 g/ha [11]: 0%; pest or weed control at 62.5 g/ha [11]: 10%; pest or weed control at 250 g/ha [11]: 20%; pest or weed control at 15.625 g/ha [12]: 0%; pest or weed control at 62.5 g/ha [12]: 30%; pest or weed control at 250 g/ha [12]: 70%
